# Laboratory results taken from US20120277238A1, “PHARMACEUTICAL COMPOSITION CONTAINING FUSED HETERO-RING DERIVATIVE” (Shionogi & Co., Ltd, priority 2009, published 2012).
# Biological target: CYP3A4 (Homo sapiens, UniProt P08684)
# Assay: CYP3A4 fluorescent MBI test
# Assay type: in vitro ADME
# Parameters: host or cells: Escherichia coli
# Details: prereaction 0 or 30 minutes; substrate 7-BFC; CYP3A4 expressed in Escherichia coli
# Procedure: The CYP3A4 fluorescent MBI test is a test of investigating enhancement of CYP3A4 inhibition of a compound by a metabolism reaction, and the test was performed using, as CYP3A4 enzyme expressed in Escherichia coli and employing, as an index, a reaction in which 7-benzyloxytrifluoromethylchmarin (BFC) is debenzylated by the CYP3A4 enzyme to produce a metabolite, 7-hydroxytrifluoromethylchmarin (HFC) emitting fluorescent light.
# The reaction conditions were as follows: substrate, 5.6 μmol/L 7-BFC; prereaction time, 0 or 30 minutes; reaction time, 15 minutes; reaction temperature, 25° C. […]
# An enzyme in a K-Pi buffer (pH 7.4) and a test drug solution as a pre-reaction solution were added to a 96-well plate at the composition of the pre-reaction, a part of it was transferred to another 96-well plate so that it was 1/10 diluted by a substrate in a K-Pi buffer, NADPH as a co-factor was added to initiate a reaction as an index (without preincubation) and, after a predetermined time of a reaction, acetonitrile/0.5 mol/L Tris(trishydroxyaminomethane)=4/1 was added to stop the reaction. […] For the plate on which each index reaction had been performed, a fluorescent value of 7-HFC which is a metabolite was measured with a fluorescent plate reader. […]
# Chain of CYP3A4 (P08684 whole entry): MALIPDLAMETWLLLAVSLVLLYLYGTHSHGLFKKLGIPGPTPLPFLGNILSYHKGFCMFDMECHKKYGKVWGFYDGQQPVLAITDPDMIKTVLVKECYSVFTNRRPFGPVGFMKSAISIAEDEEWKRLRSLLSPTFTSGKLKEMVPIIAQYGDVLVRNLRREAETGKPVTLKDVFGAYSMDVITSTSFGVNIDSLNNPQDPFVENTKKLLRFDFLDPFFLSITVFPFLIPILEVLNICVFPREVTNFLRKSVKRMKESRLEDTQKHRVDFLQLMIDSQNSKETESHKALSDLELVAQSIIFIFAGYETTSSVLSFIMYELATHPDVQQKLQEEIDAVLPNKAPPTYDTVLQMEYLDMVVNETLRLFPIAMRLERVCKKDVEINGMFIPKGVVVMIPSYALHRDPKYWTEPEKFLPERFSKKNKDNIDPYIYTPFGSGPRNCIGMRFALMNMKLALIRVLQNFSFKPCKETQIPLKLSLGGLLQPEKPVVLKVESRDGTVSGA
row,SMILES,CYP3A4 MBI: difference between IC50 values
1,CN1CCN(C(=O)c2cc3c([nH]2)CCC3O)CC1 (stereo not drawn) [Compound I-010],"(−) (when the difference is 3 μM or less, this was defined as (−))"

# Tested on: not listed separately
# Assay: Metabolism stability test (rat)
# Assay type: in vitro ADME
# Details: test compound concentration 0.5 μmol/L, 30 minutes, 37° C.
row,remaining rate,SMILES
1,92%,CN1CCN(C(=O)c2cc3c([nH]2)C(O)CC3)CC1 (stereo not drawn) [Compound I-012]

# Same assay, conditions: test compound concentration 2 μmol/L, 30 minutes, 37° C.
row,remaining rate,SMILES
1,79%,O=C(c1cc2c([nH]1)CCC(Cl)(Cl)C2O)N1CCNCC1 (stereo not drawn) [Compound I-073]

# Tested on: not listed separately
# Assay: Metabolism stability test (human)
# Assay type: in vitro ADME
# Details: test compound concentration 0.5 μmol/L, 30 minutes, 37° C.
# Procedure: Using commercially available pooled human hepatic microsomes, prepared in accordance with Japanese journal of pharmacology, 33 (1), p. 41-56, February 1983, a test compound was reacted for a constant time, a remaining rate was calculated by comparing a reacted sample and an unreacted sample, thereby, a degree of metabolism in liver was assessed.
# A reaction was performed (oxidative reaction) at 37° C. for 0 minute or 30 minutes in the presence of 1 mmol/L NADPH in 0.2 mL of a buffer (50 mmol/L tris-HCl pH 7.4, 150 mmol/L potassium chloride, 10 mmol/L magnesium chloride) containing 0.5 mg protein/mL of human liver microsomes. After the reaction, 50 μL of the reaction solution was added to 100 μL of a methanol/acetonitrile=1/1 (v/v), mixed and centrifuged at 3000 rpm for 15 minutes. The test compound in the supernatant was quantified by LC/MS/MS, and a remaining amount of the test compound after the reaction was calculated, letting a compound amount at 0 minute reaction time to be 100%. Hydrolysis reaction was performed in the absence of NADPH and glucuronidation reaction was in the presence of 5 mM UDP-glucuronic acid in place of NADPH, followed by similar operations.
row,remaining rate,SMILES
1,94%,CN1CCN(C(=O)c2cc3c([nH]2)C(O)CC3)CC1 (stereo not drawn) [Compound I-012]

# Same assay, conditions: test compound concentration 2 μmol/L, 30 minutes, 37° C.
row,remaining rate,SMILES
1,99%,O=C(c1cc2c([nH]1)CCC(Cl)(Cl)C2O)N1CCNCC1 (stereo not drawn) [Compound I-073]

# Tested on: not listed separately
# Assay: Bioavailability (BA) test and total body clearance test
# Assay type: in vivo
# Details: plasma; rat; oral 1 mg/kg dosage
# Procedure: (1) Animal: mice or rats (2) Breeding conditions: mice and rats are allowed to freely take solid feed and sterilized tap water (3) Dose and grouping: orally or intravenously administered at a predetermined dose; grouping is as follows (Dose depends on the compound)
# Oral administration: 1 to 30 mg/kg (n=2 to 3)
# Intravenous administration: 0.5 to 10 mg/kg (n=2 to 3)
# (4) Preparation of dosing solution: for oral administration, in a solution or a suspension state; for intravenous administration, in a solubilized state (5) Administration method: in oral administration, forcedly administer into ventriculus with oral probe; in intravenous administration, administer from caudal vein with a needle-equipped syringe (6) Evaluation items: blood is collected over time, and the plasma concentration of drug is measured by LC/MS/MS (7) Statistical analysis: regarding the transition of the plasma concentration, the area under the plasma concentration-time curve (AUC) and total body clearance (Clt) are calculated by non-linear least squares program WinNonlin (Registered trademark), and the bioavailability (BA) is calculated from the AUCs of the oral administration group and intravenous administration group
# The following values show the rat BA of the compounds on oral 1 mg/kg dosage.
row,bioavailability,SMILES
1,59%,O=C(c1cc2c([nH]1)CCC(Cl)(Cl)C2O)N1CCNCC1 (stereo not drawn) [Compound I-073]

# Same assay, conditions: rat, plasma, intravenous; read-out: Clt (total body clearance)
row,clearance,SMILES
1,24 mL/min/kg,O=C(c1cc2c([nH]1)CCC(Cl)(Cl)C2O)N1CCNCC1 (stereo not drawn) [Compound I-073]

# Biological target: T1, human HRH4 (Homo sapiens, UniProt Q9H3N8)
# T1 construct: purchased PerkinElmer
# Assay: Histamine H4 receptor binding test ([3H]-Histamine radioligand binding)
# Details: membrane fraction of CHO-K1 expressing human HRH4; [3H]-Histamine 15 nM; Ki by Cheng-Prusoff
# Procedure: Membrane fraction of CHO-K1 stably expressing human HRH4 was purchased from PerkinElmer. Radioligand binding assay was performed in 96 well polypropylene assay plates in a total assay volume of 150 μL. Membrane suspension (15 μg of protein) was mixed with [3H]-Histamine (PerkinElmer) at 15 nM and compounds at various concentration in 50 mM Tris-HCl pH7.4, 5 mM EDTA buffer. Assays were incubated for 60 min at room temperature, then the reactions were terminated by rapid filtration over 96-well GF/B filter plates (PerkinElmer) presoaked in 0.5% polyethyleneimine. Unbound radioactivity was eliminated by six times of wash with 350 μL of ice-cold 50 mM Tris pH7.4 buffer. When the filter plates were dried, Microscint-MS liquid scintillation fluid (PerkinElmer) was added to each well and retained radioactivity plates were counted in a Topcount liquid scintillation counter (PerkinElmer). Specific binding was calculated by subtracting non-specific binding determined in the presence of 100 μM unlabeled histamine from total count.
# The resulting data were analyzed for IC50 using the non-linear regression on XLfit.
# Affinity values (Ki) were then determined by Cheng-Prusoff equation.
row,Ki,SMILES
1,680 nM,CNC1CCN(C(=O)c2cc3c([nH]2)CCCC3)C1 (stereo not drawn) [Compound I-003]
2,250 nM,O=C(c1cc2c([nH]1)CCCC2)N1CCNCC1 [Compound I-005]
3,230 nM,O=C(c1cc2c([nH]1)CCCC2)N1CC2CCCNC2C1 (stereo not drawn) [Compound I-006]
4,420 nM,O=C(c1nc2c([nH]1)CCCC2)N1CCNCC1 [Compound I-008]
5,150 nM,CC1CCCc2[nH]c(C(=O)N3CCN(C)CC3)cc21 (stereo not drawn) [Compound I-009]
6,680 nM,CN1CCN(C(=O)c2cc3c([nH]2)C(O)CC3)CC1 (stereo not drawn) [Compound I-012]
7,300 nM,CN1CCN(C(=O)c2cc3c([nH]2)CCCCC3)CC1 [Compound I-013]
8,86 nM,CC1CCc2[nH]c(C(=O)N3CCN(C)CC3)cc2C1 (stereo not drawn) [Compound I-015]
9,370 nM,CN1CCN(C(=O)c2cc3c([nH]2)CCC(=O)C3)CC1 [Compound I-016]
10,570 nM,CC1CCc2cc(C(=O)N3CCN(C)CC3)[nH]c2C1 (stereo not drawn) [Compound I-017]
11,200 nM,Cc1ccc(S(=O)(=O)OC2CCc3[nH]c(C(=O)N4CCN(C)CC4)cc3C2)cc1 (stereo not drawn) [Compound I-019]
12,22 nM,CN1CCN(C(=O)c2cc3c([nH]2)CCC(Cl)C3)CC1 (stereo not drawn) [Compound I-020]
13,120 nM,CN1CCN(C(=O)c2cc3c([nH]2)CCC=C3)CC1 [Compound I-021]
14,70 nM,CN1CCN(C(=O)c2cc3c([nH]2)CCC(C)(C)C3)CC1 [Compound I-022]
15,990 nM,COC1CCc2[nH]c(C(=O)N3CCN(C)CC3)cc2C1 (stereo not drawn) [Compound I-023]
16,710 nM,CN1CCN(C(=O)c2cc3c([nH]2)C(=O)CCC3)CC1 [Compound I-024]
17,100 nM,CC1CCCc2cc(C(=O)N3CCN(C)CC3)[nH]c21 (stereo not drawn) [Compound I-026]
18,760 nM,CN1CCN(C(=O)c2cc3c([nH]2)CCC(c2ccccc2)=C3)CC1 [Compound I-027]
19,320 nM,C#CC1=Cc2cc(C(=O)N3CCN(C)CC3)[nH]c2CC1 [Compound I-033]
20,88 nM,CN1CCN(C(=O)c2cc3c([nH]2)C(O)CCC3)CC1 (stereo not drawn) [Compound I-036]
21,180 nM,CN1CCN(C(=O)c2cc3c([nH]2)C(C)(O)CCC3)CC1 (stereo not drawn) [Compound I-040]
22,590 nM,CCC1(O)CCCc2cc(C(=O)N3CCN(C)CC3)[nH]c21 (stereo not drawn) [Compound I-041]
23,910 nM,CN1CCN(C(=O)c2cc3c([nH]2)CCC(C(F)(F)F)C3)CC1 (stereo not drawn) [Compound I-045]
24,290 nM,CN1CCN(C(=O)c2cc3c([nH]2)[C@H]2CC[C@@H]3C2)CC1 [Compound I-046]

row,Ki,SMILES
1,14 nM,CN1CCN(C(=O)c2cc3c([nH]2)CCC(Cl)(Cl)C3)CC1 [Compound I-047]
2,110 nM,CN1CCN(C(=O)c2cc3c([nH]2)CCCC3)CC1 [Compound I-048]
3,150 nM,CN1CCN(C(=O)c2nc3c([nH]2)CCCC3)CC1 [Compound I-049]
4,250 nM,CN1CCN(C(=O)c2cc3c([nH]2)CCCC3O)CC1 (stereo not drawn) [Compound I-051]
5,380 nM,CN1CCN(C(=O)c2cc3c([nH]2)CCOC3)CC1 [Compound I-052]
6,140 nM,CN1CCN(C(=O)c2cc3c([nH]2)CCC(F)C3O)CC1 (stereo not drawn) [Compound I-053]
7,230 nM,CN1CCN(C(=O)c2cc3c([nH]2)CCC(F)(F)C3O)CC1 (stereo not drawn) [Compound I-054]
8,23 nM,O=C(c1cc2c([nH]1)CCC(Cl)(Cl)C2)N1CCNCC1 [Compound I-055]
9,130 nM,O=C(c1cc2c([nH]1)CCC(F)(F)C2)N1CCNCC1 [Compound I-056]
10,440 nM,CN1CCN(C(=O)c2cc3c([nH]2)C(C)(O)CC3)CC1 (stereo not drawn) [Compound I-057]
11,270 nM,CC(=O)n1c(C(=O)N2CCN(C)CC2)cc2c1CCCC2 [Compound I-059]
12,210 nM,CC(C)C(=O)n1c(C(=O)N2CCN(C)CC2)cc2c1CCCC2 [Compound I-061]
13,260 nM,O=C(c1cc2c([nH]1)CCCC2)N1C[C@H]2CCCN[C@H]2C1 [Compound I-062]
14,180 nM,O=C(c1cc2c([nH]1)CCC(F)(F)C2O)N1C[C@H]2CCCN[C@H]2C1 (stereo partly drawn) [Compound I-064]
15,35 nM,CN1CCN(C(=O)c2cc3c([nH]2)CC=C(F)C3)CC1 [Compound I-065]
16,350 nM,CN1CCN(C(=O)c2cc3c([nH]2)CCC(Cl)(Cl)C3O)CC1 (stereo not drawn) [Compound I-066]
17,480 nM,COC1c2cc(C(=O)N3CCNCC3)[nH]c2CCC1(Cl)Cl (stereo not drawn) [Compound I-067]
18,520 nM,O=C(c1cc2c([nH]1)CCC(F)(F)C2O)N1CCN2CCCC2C1 (stereo not drawn) [Compound I-068]
19,220 nM,COC1c2cc(C(=O)N3CCN(C)CC3)[nH]c2CCC1(Cl)Cl (stereo not drawn) [Compound I-069]
20,270 nM,CCOC1c2cc(C(=O)N3C[C@H]4CCCN[C@H]4C3)[nH]c2CCC1(F)F (stereo partly drawn) [Compound I-070]
21,980 nM,O=C(c1cc2c([nH]1)CCC(Cl)(Cl)C2O)N1CCNCC1 (stereo not drawn) [Compound I-073]
22,20 nM,CN1CCN(C(=O)c2cc3c([nH]2)CC(O)CC3)CC1 (stereo not drawn) [Compound I-075]
23,25 nM,CN1CCN(C(=O)c2cc3c([nH]2)CC(O)C(Cl)(Cl)C3)CC1 (stereo not drawn) [Compound I-076]
